# Activity calls are given as the source filed them. No cut-off for these calls is given here.
# Tests used:
# [1] = target: 3',5'-cyclic-AMP phosphodiesterase 4B (Homo sapiens, UniProt Q07343); assay: Inhibition of recombinant full length PDE4B (unknown origin) using FAM-cAMP as substrate at 1 uM preincubated with compound for compound for 15 mins followed by substrate addition and measured after 30 mins by Envision multilabel reader analysis relative to control; conditions: time 45.0 min
# HEK-293T = assay: Cytotoxicity against human HEK293T cells assessed as reduction in cell viability incubated for 24 hrs by CCK-8 assay; assay type: toxicity, cell-based; set-up: concentration or dose not given beside the values
# RAW264.7 = assay: Cytotoxicity against mouse RAW264.7 cells assessed as reduction in cell viability incubated for 24 hrs by CCK-8 assay; assay type: toxicity, cell-based; conditions: raw264.7, 24 h
# HepG2 = assay: Cytotoxicity against human HepG2 cells assessed as reduction in cell viability incubated for 24 hrs by CCK-8 assay; assay type: toxicity, cell-based; conditions: hepg2, 24 h
# Mus musculus [2] = assay: Anti-inflammatory activity against LPS-induced acute lung injury male BALB/c mouse model assessed as restoration of alveolar septa in lung at 4 mg/kg administered once a day via gavage for 7 days followed by LPS stimulation and measured after 24 hrs by H and E staining based microscopic analysis; assay type: functional, organism-based; conditions: time 192.0 hrs
# Mus musculus [3] = assay: Anti-inflammatory activity against LPS-induced acute lung injury male BALB/c mouse model assessed as restoration of alveolar cavities in lung at 4 mg/kg administered once a day via gavage for 7 days followed by LPS stimulation and measured after 24 hrs by H and E staining based microscopic analysis; assay type: functional, organism-based; conditions: time 192.0 hrs
# Mus musculus [4] = assay: Anti-inflammatory activity against LPS-induced acute lung injury male BALB/c mouse model assessed as relaxation of alveolar in lung at 4 mg/kg administered once a day via gavage for 7 days followed by LPS stimulation and measured after 24 hrs by H and E staining based microscopic analysis; assay type: functional, organism-based; conditions: time 192.0 hrs
# Mus musculus [5] = assay: Anti-inflammatory activity against LPS-induced acute lung injury male BALB/c mouse model assessed as enlarged bronchiole tubes in lung at 4 mg/kg administered once a day via gavage for 7 days followed by LPS stimulation and measured after 24 hrs by H and E staining based microscopic analysis; assay type: functional, organism-based; conditions: time 192.0 hrs
# Mus musculus [6] = assay: Antifibrotic activity against LPS-induced acute lung injury male BALB/c mouse model assessed as decrease in collagen deposition at 4 mg/kg administered once a day via gavage for 7 days followed by LPS stimulation and measured after 24 hrs by masson staining based microscopic analysis; assay type: functional, organism-based; conditions: time 192.0 hrs
# Mus musculus [7] = assay: (§1) Anti-inflammatory activity against cigarette-smoke/LPS-induced COPD male C57BL/6 mouse model assessed as reduction in TNF-alpha level in BALF at 5 mg/kg pretreated with cigarette smoke exposure for 21 weeks with subsequent LPS induction twice on the first and 15th day followed by compound administration every day via gavage for 4 weeks; assay type: functional, organism-based
# Mus musculus [8] = assay: as §1, with “IL-6” for “TNF-alpha”; assay type: functional, organism-based
# Mus musculus [9] = assay: as §1, with “MMP9” for “TNF-alpha”; assay type: functional, organism-based
# Mus musculus [10] = assay: as §1, with “reduction in bronchiole thickness at 5” for “reduction in TNF-alpha level in BALF at 5”, “4 weeks by H and E staining based microscopic analysis” for “4 weeks”; assay type: functional, organism-based
# Mus musculus [11] = assay: Anti-inflammatory activity against cigarette-smoke/LPS-induced COPD male C57BL/6 mouse model assessed as decrease in collagen formation at 5 mg/kg pretreated with cigarette smoke exposure for 21 weeks with subsequent LPS induction twice on the first and 15th day followed by compound administration every day via gavage for 4 weeks by masson staining based microscopic analysis; assay type: functional, organism-based
# [12] = Inhibition of PDE3 (unknown origin); set-up: species or system Homo sapiens
# Phosphodiesterase 4 = Phosphodiesterase 4 (Homo sapiens, UniProt P27815+Q08499+Q07343+Q08493); assay: Inhibition of PDE4 (unknown origin); assay type: protein assay
# Sequence of 3',5'-cyclic-AMP phosphodiesterase 4B (Q07343 whole entry): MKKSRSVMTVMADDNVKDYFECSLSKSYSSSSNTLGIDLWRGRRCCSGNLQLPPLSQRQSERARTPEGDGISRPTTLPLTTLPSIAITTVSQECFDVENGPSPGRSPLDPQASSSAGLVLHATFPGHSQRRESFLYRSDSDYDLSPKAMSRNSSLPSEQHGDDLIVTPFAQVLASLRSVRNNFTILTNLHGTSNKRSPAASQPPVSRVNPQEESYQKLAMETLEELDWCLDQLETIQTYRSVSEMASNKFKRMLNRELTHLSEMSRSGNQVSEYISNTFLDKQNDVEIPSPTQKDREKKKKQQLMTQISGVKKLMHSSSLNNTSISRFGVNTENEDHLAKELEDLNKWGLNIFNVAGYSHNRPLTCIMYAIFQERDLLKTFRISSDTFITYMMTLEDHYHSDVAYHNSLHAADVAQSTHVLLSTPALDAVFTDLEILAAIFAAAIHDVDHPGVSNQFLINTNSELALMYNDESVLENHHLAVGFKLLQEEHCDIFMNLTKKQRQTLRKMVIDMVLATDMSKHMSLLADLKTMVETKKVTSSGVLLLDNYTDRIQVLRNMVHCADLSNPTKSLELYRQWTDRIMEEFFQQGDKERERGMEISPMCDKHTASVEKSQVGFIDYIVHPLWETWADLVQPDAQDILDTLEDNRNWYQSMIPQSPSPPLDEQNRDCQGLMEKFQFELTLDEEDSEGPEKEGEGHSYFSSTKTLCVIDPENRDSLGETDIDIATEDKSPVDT
SMILES,inhibition [1] [%],other results
O=C(NCc1ncccn1)c1ccc2[nH]c(-c3ccc(OC(F)F)c(OCC4CC4)c3)nc2c1,62.3,–
COc1ccc(-c2nc3cc(C(=O)NCc4ccc(F)cc4F)ccc3[nH]2)cc1OCC1CC1,23.3,–
O=C(ON1C(=O)CCC1=O)c1cccc2[nH]c(-c3ccc(OC(F)F)c(OCC4CC4)c3)nc12,91.5,–
Cn1cc(NC(=O)c2cccc3[nH]c(-c4ccc(OC(F)F)c(OCC5CC5)c4)nc23)cn1,93.6,Activity (HepG2): Non-toxic; Activity (RAW264.7): Non-toxic
O=C(NCc1ccc(F)cc1F)c1ccc2[nH]c(-c3ccc(OC(F)F)c(OCC4CC4)c3)nc2c1,24.8,–
O=C(Nc1nccs1)c1cccc2[nH]c(-c3ccc(OC(F)F)c(OC(F)F)c3)nc12,68,–
O=C(NCc1c(F)cc(F)cc1F)c1cccc2[nH]c(-c3ccc(OC(F)F)c(OC(F)F)c3)nc12,73.3,–
O=C(ON1C(=O)CCC1=O)c1ccc2[nH]c(-c3ccc(OC(F)F)c(OCC4CC4)c3)nc2c1,62.2,–
COc1ccc(-c2nc3cc(C(=O)NCc4ncccn4)ccc3[nH]2)cc1OCC1CC1,42.5,–
COc1ccc(-c2nc3cc(C(=O)Nc4ccc5ncsc5c4)ccc3[nH]2)cc1OCC1CC1,49.2,–
O=C(Nc1c(Cl)cncc1Cl)c1ccc(OC(F)F)c(OCC2CC2)c1,–,Activity (Mus musculus [2]): Active; Activity (Mus musculus [3]): Active; Activity (Mus musculus [4]): Active; Activity (Mus musculus [5]): Active; Activity (Mus musculus [6]): Active; Activity (Mus musculus [7]): Active; Activity (Mus musculus [8]): Active; Activity (Mus musculus [9]): Active; Activity (Mus musculus [10]): Active; Activity (Mus musculus [11]): Active
O=C(NCc1c(F)cc(F)cc1F)c1cccc2[nH]c(-c3ccc(OC(F)F)c(OCC4CC4)c3)nc12,88.6,–
O=C(Nc1ccc2[nH]ccc2c1)c1cccc2[nH]c(-c3ccc(OC(F)F)c(OCC4CC4)c3)nc12,93.5,Activity (HepG2): Non-toxic; Activity (RAW264.7): Non-toxic
COc1ccc(-c2ccc3[nH]c(-c4ccc(OC(F)F)c(OCC5CC5)c4)nc3c2)cc1OC,80.9,–
O=C(Nc1ccncc1)c1ccc2[nH]c(-c3ccc(OC(F)F)c(OCC4CC4)c3)nc2c1,62.3,–
Cc1nc2ccc(NC(=O)c3cccc4[nH]c(-c5ccc(OC(F)F)c(OCC6CC6)c5)nc34)cc2s1,56.8,–
O=S(=O)(c1ccccc1)n1cc(-c2ccc3[nH]c(-c4ccc(OC(F)F)c(OCC5CC5)c4)nc3c2)c2ccccc21,25.8,–
O=C(O)c1ccc(NNC(=O)c2cccc3[nH]c(-c4ccc(OC(F)F)c(OCC5CC5)c4)nc23)cc1,96.2,Activity (HepG2): Non-toxic; Activity (RAW264.7): Non-toxic
COc1cc2c(cc1OC)-c1c/c(=N\c3c(C)cc(C)cc3C)n(CCNC(N)=O)c(=O)n1CC2 [ENSIFENTRINE],–,IC50 [12]: 0.4 nM; IC50 (Phosphodiesterase 4): 1479 nM
O=C(Nc1ccc2ncsc2c1)c1cccc2[nH]c(-c3ccc(OC(F)F)c(OC(F)F)c3)nc12,70.2,–
N#Cc1ccc(NNC(=O)c2ccc3[nH]c(-c4ccc(OC(F)F)c(OCC5CC5)c4)nc3c2)cc1,76.2,–
O=C(Nc1ccc2ncsc2c1)c1cccc2[nH]c(-c3ccc(OC(F)F)c(OCC4CC4)c3)nc12,79.3,–
FC(F)Oc1ccc(-c2nc3cc(-c4ccncc4)ccc3[nH]2)cc1OCC1CC1,81.4,–
O=C(NCC1CCOCC1)c1cccc2[nH]c(-c3ccc(OC(F)F)c(OCC4CC4)c3)nc12,94.6,–
O=C(Nc1nc2ccccc2s1)c1cccc2[nH]c(-c3ccc(OC(F)F)c(OCC4CC4)c3)nc12,53.1,–

# Now from value to compound, other results behind:
inhibition [1] [%],SMILES,other results
93.3,O=C(NCc1cnccn1)c1cccc2[nH]c(-c3ccc(OC(F)F)c(OCC4CC4)c3)nc12,–
81.6,O=C(Nc1ccccn1)c1cccc2[nH]c(-c3ccc(OC(F)F)c(OCC4CC4)c3)nc12,–
83.8,O=C(Nc1ccccc1)c1cccc2[nH]c(-c3ccc(OC(F)F)c(OCC4CC4)c3)nc12,–
91.9,O=C(NCc1cccc(F)c1F)c1cccc2[nH]c(-c3ccc(OC(F)F)c(OCC4CC4)c3)nc12,Activity (HEK-293T): > 70%; Activity (RAW264.7): Non-toxic
94.4,O=C(NCc1c(F)cccc1F)c1cccc2[nH]c(-c3ccc(OC(F)F)c(OCC4CC4)c3)nc12,Activity (HEK-293T): > 70%; Activity (RAW264.7): Non-toxic
90.1,O=C(Nc1cccnc1)c1cccc2[nH]c(-c3ccc(OC(F)F)c(OCC4CC4)c3)nc12,Activity (HepG2): Non-toxic; Activity (RAW264.7): Non-toxic
93.9,O=C(NCc1ccccn1)c1cccc2[nH]c(-c3ccc(OC(F)F)c(OCC4CC4)c3)nc12,Activity (RAW264.7): Non-toxic
93.4,COc1ccc(CNC(=O)c2cccc3[nH]c(-c4ccc(OC(F)F)c(OCC5CC5)c4)nc23)cn1,Activity (RAW264.7): Non-toxic
94,O=C(NCc1ccc(F)cc1F)c1cccc2[nH]c(-c3ccc(OC(F)F)c(OCC4CC4)c3)nc12,Activity (HEK-293T): > 70%; Activity (RAW264.7): Non-toxic
92.2,O=C(NCc1ccccc1)c1cccc2[nH]c(-c3ccc(OC(F)F)c(OCC4CC4)c3)nc12,Activity (HEK-293T): > 70%; Activity (RAW264.7): Non-toxic
85.2,O=C(NCc1ccccc1F)c1cccc2[nH]c(-c3ccc(OC(F)F)c(OCC4CC4)c3)nc12,–
88.8,O=C(NCc1cc(F)ccc1F)c1cccc2[nH]c(-c3ccc(OC(F)F)c(OCC4CC4)c3)nc12,–
90.1,O=C(NCc1ccc2ccccc2c1)c1cccc2[nH]c(-c3ccc(OC(F)F)c(OCC4CC4)c3)nc12,Activity (HepG2): Non-toxic; Activity (RAW264.7): Non-toxic
94.1,Cn1ccc(NC(=O)c2cccc3[nH]c(-c4ccc(OC(F)F)c(OCC5CC5)c4)nc23)n1,–
91.1,O=C(NCc1cccnc1)c1cccc2[nH]c(-c3ccc(OC(F)F)c(OCC4CC4)c3)nc12,Activity (RAW264.7): Non-toxic
95.5,O=C(NCc1ncccn1)c1cccc2[nH]c(-c3ccc(OC(F)F)c(OCC4CC4)c3)nc12,–
90.6,O=C(NCc1ccc(F)c(F)c1)c1cccc2[nH]c(-c3ccc(OC(F)F)c(OCC4CC4)c3)nc12,Activity (HEK-293T): > 70%; Activity (RAW264.7): Non-toxic
65.6,O=C(Nc1ccncc1)c1cccc2[nH]c(-c3ccc(OC(F)F)c(OCC4CC4)c3)nc12,–
82.4,O=C(NCc1cc(F)cc(F)c1)c1cccc2[nH]c(-c3ccc(OC(F)F)c(OCC4CC4)c3)nc12,–
